The test system of assay [1] is Balb/c mice. Put plainly: i.m. immunization of Balb/c mice with M72 antigen and liposomal adjuvant; splenocyte restimulation, intracellular cytokine staining. It is filed as in vivo, mouse. The conditions noted are these: for antigen-specific CD4+ and CD8+ IL-17A producing cells (Th17 response): M72 restimulated splenocytes, TDB at highest dose.
The test system of assay [2] is peripheral blood mononuclear cells (PBMCs). The assay is described as follows: Cytokine analysis of supernatants of stimulated, freshly prepared PBMCs. It is filed as cell-based, human. To be noted: compounds solubilized in DMSO. How it is done:
(§1) Tumor necrosis factor alpha (TNFα) and IL-6 production in peripheral blood mononuclear cells (PBMCs) was measured after exposure to various concentrations of the DAT compounds synthesized as shown above. Initial studies focused on two different methods of delivery of the DAT compounds to PBMC cultures. In the first delivery method, the indicated derivative compound was dissolved in isopropanol, serially diluted, and then dried to the bottom of a tissue culture plate. In the second delivery method, the indicated derivative compound was dissolved in DMSO and serially diluted into tissue culture media. In each method, PBMCs were added to the compounds and incubated at 37° C. TNFα (FIG. 1A) and IL-6 (FIG. 1B) were measured after 18-24 hours after treatment by ELISA assay.
Supernatants from the freshly prepared PBMCs stimulated with DAT compounds solubilized in DMSO (Example 5A) were analyzed for the cytokines that help drive Th1 cell or Th17 cell adaptive immune responses; IFNγ, IL-12 p70, IL-6, IL-1β, and IL-23. Minimal amounts of IL-12p70 were detected and IFNγ was undetectable. Therefore, both are not reported.

Assay [3] concerns RAW264.7 cells. The assay is described as follows: Cytokine (TNFα) response of mouse macrophage cell line; Table 2 'Murine'. It is filed as cell-based. Further details: Maximum cytokine response Murine: unit not given here. The conditions noted are these: NR = no response. The protocol:
Compounds were also tested in a mouse macrophage cell line (FIG. 4B). RAW264.7 cells were subjected to increasing concentrations of the compounds and assessed for production of the cytokine TNFα.

Assay [4] concerns peripheral blood mononuclear cells (PBMCs). Put plainly: IL-6 induction in fresh human PBMCs. The format is cell-based. To be noted: for IL-6 production / activity in fresh PBMCs from multiple donors (in words): compounds in DMSO serially diluted in media, supernatants 18 h after treatment; for Maximum cytokine response h-IL-6 / Minimal Effective Concentration h-IL-6: human IL-6, NR = no response. The protocol: as §1
The isolated PBMCs were exposed to increasing concentrations of the indicated compounds resuspended in DMSO and serially diluted in media. IL-6 levels were determined from supernatants eighteen hours after treatment (FIG. 3).

Assay [5] addresses T1, Mincle receptor (Mus musculus, UniProt Q9R0Q8).
T1 construct: expressed in transfected cells; host or cells: HEK-Blue Mincle reporter cells (HEK293-derived, NF-kB SEAP reporter)
T1 sequence (Q9R0Q8 1-214): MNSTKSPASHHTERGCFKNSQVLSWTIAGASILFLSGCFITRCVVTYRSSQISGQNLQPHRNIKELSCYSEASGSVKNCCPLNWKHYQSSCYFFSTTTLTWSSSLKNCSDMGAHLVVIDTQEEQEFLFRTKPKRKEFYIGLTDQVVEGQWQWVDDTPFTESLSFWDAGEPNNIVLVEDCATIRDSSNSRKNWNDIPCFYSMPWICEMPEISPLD
Put plainly: HEK-Blue Mincle mouse reporter cells, NF-κB SEAP production. It is filed as cell-based. The protocol: Compounds were also tested in the commercial reporter Hek-Blue™ cell lines. Hek-Blue™ cells were treated with increasing concentrations of the indicated compound for 18 to 24 hours. Isolated supernatants were measured for NF-κB secreted embryonic alkaline phosphatase (SEAP) production with QUANTI-Blue™ reagent (FIG. 4A). SEAP production was robust for both the mouse and human reporter lines (FIG. 4A), indicating strong signaling through the Mincle receptor in both human and murine systems.

`CCCCCCCCCCCCCCCCCCCCCC(=O)OC[C@H]1O[C@H](O[C@H]2O[C@H](COC(=O)CCCCCCCCCCCCCCCCCCCCC)[C@@H](O)[C@H](O)[C@H]2O)[C@H](O)[C@@H](O)[C@@H]1O` [TDB, trehalose dibehenate, reference compound]: the “antigen-specific CD4+ and CD8+ IL-17A producing cells (Th17 response)” value in assay [1] (liposomal formulation) is given as “induced some IL-17A”.

On to `COc1cc(OC)cc(C(=O)OC[C@H]2O[C@H](O[C@H]3O[C@H](COC(=O)c4cc(OC)cc(OC)c4)[C@@H](O)[C@H](O)[C@H]3O)[C@H](O)[C@@H](O)[C@@H]2O)c1` [UM1015, 6,6′-bis-(3,5-dimethoxybenzoate)-α,α-trehalose], for which the “TNFα response in PBMCs (in words)” value in assay [2] is listed as “higher responding”. In assay [3] (listed as 1015), the “Maximum cytokine response Murine” value is 3.5 and the “Minimal Effective Concentration Murine” value was 12.3 µM. Further, in assay [4], the “IL-6 production / activity in fresh PBMCs from multiple donors (in words)” value (from here on “IL-6 production / activity”) is on record as “potent, robust activity in only 3 of 5 donors”; the “Maximum cytokine response h-IL-6” value amounted to 3.6 OD; the “Minimal Effective Concentration h-IL-6” value was determined as 111 µM.

As for `COc1ccc(/C=C/C(=O)OC[C@H]2O[C@H](O[C@H]3O[C@H](COC(=O)/C=C/c4ccc(OC)c(OC)c4)[C@@H](O)[C@H](O)[C@H]3O)[C@H](O)[C@@H](O)[C@@H]2O)cc1OC` [UM1019], the “TNFα response in PBMCs (in words)” value in assay [2] is reported as “higher responding”. Further, in assay [3], the “Maximum cytokine response Murine” value stood at 2.3 and the “Minimal Effective Concentration Murine” value came to 111 µM. Further, in assay [4], the “Maximum cytokine response h-IL-6” value came out at 2 OD and the “Minimal Effective Concentration h-IL-6” value was found to be 333 µM.

Regarding `COc1cc(/C=C/C(=O)OC[C@H]2O[C@H](O[C@H]3O[C@H](COC(=O)/C=C/c4cc(OC)c(OC)c(OC)c4)[C@@H](O)[C@H](O)[C@H]3O)[C@H](O)[C@@H](O)[C@@H]2O)cc(OC)c1OC` [UM1020], the “TNFα response in PBMCs (in words)” value in assay [2] is on record as “higher responding”. In assay [3], the “Maximum cytokine response Murine” value is 3.2 and the “Minimal Effective Concentration Murine” value came out at 33.3 µM. Moreover, in assay [4], the “Maximum cytokine response h-IL-6” value came out at 1.5 OD and the “Minimal Effective Concentration h-IL-6” value was found to be 333 µM.

Take `O=C(/C=C/c1ccc(O)c(O)c1)OC[C@H]1O[C@H](O[C@H]2O[C@H](COC(=O)/C=C/c3ccc(O)c(O)c3)[C@@H](O)[C@H](O)[C@H]2O)[C@H](O)[C@@H](O)[C@@H]1O` [UM1021]: in assay [2], the “TNFα response in PBMCs (in words)” value is recorded as “higher responding”. Besides, in assay [3], the “Maximum cytokine response Murine” value worked out at 3 and the “Minimal Effective Concentration Murine” value is 333 µM. In addition, in assay [4], the “IL-6 production / activity” value is recorded as “induced some cytokine production”, the “Maximum cytokine response h-IL-6” value worked out at 2 OD and the “Minimal Effective Concentration h-IL-6” value worked out at 333 µM.

`COc1cc(C)c(C(=O)OC[C@H]2O[C@H](O[C@H]3O[C@H](COC(=O)c4c(C)cc(OC)cc4OC)[C@@H](O)[C@H](O)[C@H]3O)[C@H](O)[C@@H](O)[C@@H]2O)c(OC)c1` [UM1022]: the “TNFα response in PBMCs (in words)” value in assay [2] is recorded as “higher responding”. In assay [3], the “Maximum cytokine response Murine” value stood at 3.3 and the “Minimal Effective Concentration Murine” value is 37 µM. Moreover, in assay [4], the “IL-6 production / activity” value is given as “reproducibly induced potent, robust IL-6 production”; the “Maximum cytokine response h-IL-6” value is on record as 3 OD; the “Minimal Effective Concentration h-IL-6” value is 333 µM.

As to `CC(C)c1cc(C(=O)OC[C@H]2O[C@H](O[C@H]3O[C@H](COC(=O)c4cc(C(C)C)cc(C(C)C)c4O)[C@@H](O)[C@H](O)[C@H]3O)[C@H](O)[C@@H](O)[C@@H]2O)c(O)c(C(C)C)c1` [UM1023, 6,6′-bis-(3,5-di-iso-propylsalisate)-α,α-trehalose], the “TNFα response in PBMCs (in words)” value in assay [2] is recorded as “higher responding”. Also, in assay [3], the “Maximum cytokine response Murine” value is 2.5 and the “Minimal Effective Concentration Murine” value was found to be 0.45 µM. Besides, the “IL-6 production / activity” value in assay [4] was “lower activity”.

Regarding `CC(C)(C)c1cc(C(=O)OCC2OC(OC3OC(COC(=O)c4cc(C(C)(C)C)cc(C(C)(C)C)c4O)C(O)C(O)C3O)C(O)C(O)C2O)c(O)c(C(C)(C)C)c1` (stereo not drawn) [UM1024, 6,6′-bis-(3,5-di-tert-butylsalisate)-α,α-trehalose], the “TNFα response in PBMCs (in words)” value in assay [2] is recorded as “higher responding”. Besides, the “NF-κB SEAP production, mouse reporter line” value in assay [5] (18 to 24 hours, QUANTI-Blue) is given as “distinct very high peak at low concentration of compound”. In addition, the “potency shift in comparison with other compounds, reporter cells” value in assay [5] (HEK-Blue Mincle reporter, compared with PBMC cytokine profiles) is “did not display a large leftward potency shift”. The “IL-2 production compared to controls” value in assay [1] (10 nmol group) was “substantially increased”. The “TNFα production compared to controls” value in assay [1] (higher doses) is on record as “increased compared to controls”. In addition, the “antigen-specific CD4+ and CD8+ IL-17A producing cells (Th17 response)” value in assay [1] (liposomal formulation) is “induced high levels of antigen-specific CD4+ and CD8+ IL17A producing cells”. Further, the “IL-5 production (Th2 response) in restimulated cells” value in assay [1] (liposomal formulation, M72 vaccine) is on record as “seen in restimulated cells”. In assay [3], the “Maximum cytokine response Murine” value was 3 and the “Minimal Effective Concentration Murine” value was 0.45 µM. In addition, in assay [4], the “Maximum cytokine response h-IL-6” value was 3.5 OD and the “Minimal Effective Concentration h-IL-6” value worked out at 1 µM. Besides, in assay [4] (human PBMCs), the “increased potency (EC50) for induction of cytokines relative to other compounds” value is “over 1000 ×”.

As to `CCOc1cc(C(=O)NC[C@H]2O[C@H](O[C@H]3O[C@H](CNC(=O)c4cc(OCC)c(OCC)c(OCC)c4)[C@@H](O)[C@H](O)[C@H]3O)[C@H](O)[C@@H](O)[C@@H]2O)cc(OCC)c1OCC` [UM1110], in assay [3], the “Maximum cytokine response Murine” value was 11 and the “Minimal Effective Concentration Murine” value was found to be 2.5 µM. For the same compound, in assay [4], the “Maximum cytokine response h-IL-6” value is 1 OD and the “Minimal Effective Concentration h-IL-6” value came to 100 µM.

Take `CCCCCOc1cc(OCCCCC)cc(C(=O)NC[C@H]2O[C@H](O[C@H]3O[C@H](CNC(=O)c4cc(OCCCCC)cc(OCCCCC)c4)[C@@H](O)[C@H](O)[C@H]3O)[C@H](O)[C@@H](O)[C@@H]2O)c1` [UM1111]: in assay [3], the “Maximum cytokine response Murine” value came out at 0.13 and the “Minimal Effective Concentration Murine” value is 3.3 µM. Also, in assay [4], the “Maximum cytokine response h-IL-6” value was 2.5 OD and the “Minimal Effective Concentration h-IL-6” value came to 33.3 µM.

With `Cc1cc(C(C)(C)C)cc(C)c1C(=O)OC[C@H]1O[C@H](O[C@H]2O[C@H](COC(=O)c3c(C)cc(C(C)(C)C)cc3C)[C@@H](O)[C@H](O)[C@H]2O)[C@H](O)[C@@H](O)[C@@H]1O` [UM1116], in assay [3], the “Maximum cytokine response Murine” value was 0.005 and the “Minimal Effective Concentration Murine” value came to 3 µM. For the same compound, in assay [4], the “Maximum cytokine response h-IL-6” value is 2.3 OD and the “Minimal Effective Concentration h-IL-6” value was determined as 100 µM.

Consider `CC(C)(C)CC(C)(C)c1ccc(O)c(C(=O)OC[C@H]2O[C@H](O[C@H]3O[C@H](COC(=O)c4cc(C(C)(C)CC(C)(C)C)ccc4O)[C@@H](O)[C@H](O)[C@H]3O)[C@H](O)[C@@H](O)[C@@H]2O)c1` [UM1117], for which, in assay [3], the “Maximum cytokine response Murine” value is given as 11 and the “Minimal Effective Concentration Murine” value is 3 µM. Also, in assay [4], the “Maximum cytokine response h-IL-6” value worked out at 9 OD and the “Minimal Effective Concentration h-IL-6” value came out at 33.3 µM.

As to `CCOc1cc(C(=O)OC[C@H]2O[C@H](O[C@H]3O[C@H](CO)[C@@H](O)[C@H](O)[C@H]3O)[C@H](O)[C@@H](O)[C@@H]2O)cc(OCC)c1OCC` [UM1120], in assay [3], the “Maximum cytokine response Murine” value is 11 and the “Minimal Effective Concentration Murine” value is 2.5 µM. In addition, in assay [4], the “Maximum cytokine response h-IL-6” value was 0.3 OD and the “Minimal Effective Concentration h-IL-6” value came to 100 µM.

With `CC(C)(C)c1cc(C(=O)NC[C@H]2O[C@H](O[C@H]3O[C@H](CNC(=O)c4cc(C(C)(C)C)cc(C(C)(C)C)c4)[C@@H](O)[C@H](O)[C@H]3O)[C@H](O)[C@@H](O)[C@@H]2O)cc(C(C)(C)C)c1` [UM1123], in assay [3], the “Maximum cytokine response Murine” value was determined as 0.13 and the “Minimal Effective Concentration Murine” value is 3.3 µM. For the same compound, in assay [4], the “Maximum cytokine response h-IL-6” value amounted to 2.7 OD and the “Minimal Effective Concentration h-IL-6” value is 33.3 µM.

The values are drawn from patent publication US12319709B2, “Diaryl trehalose compounds and uses thereof” (THE UNIVERSITY OF MONTANA, priority 2018, dated 2025).
